Measurements published in PMC9343605, “Structural insights into ligand recognition and selectivity of somatostatin receptors” (Cell Research, 2022).

Experiments:
[1] = molecular target: T1, SSTR2 (Homo sapiens, UniProt P30874, Q126A); experiment: cAMP accumulation assay (agonist-induced inhibition of forskolin-stimulated cAMP), SSTR2, HEK293F; type: cell-based; set-up: expressed in transfected cells; host or cells: HEK293F; settings: SSTR2 mutant Q126^3.36A; mean ± SEM;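 note: transiently transfected cells exposed to 2 µM forskolin and a ligand concentration series for 40 min at room temperature in IBMX-containing HBSS, then cAMP quantified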
Procedure: (§1) HEK293F cells were transiently transfected with WT or mutant SSTR2/SSTR4 using transfection reagent (PEI MAX 2000, Polysciences) and incubated at 37 °C in 5% CO2. Forty-eight hours after transfection, cells were centrifuged and resuspended in stimulation buffer (Hanks’ balanced salt solution (HBSS) supplemented with 5 mM HEPES, 0.5 mM IBMX and 0.1% (w/v) bovine serum albumin (BSA), pH 7.4) to a density of 200,000 cells/mL and added to 384-well white plates (PerkinElmer, 1000 cells/well). cAMP accumulation was measured by a LANCE Ultra cAMP kit (PerkinElmer) according to the manufacturer’s instructions. In brief, transfected cells were incubated for 40 min in stimulation buffer with 2.5 μL forskolin (SSTR2: 2 μM; SSTR4: 4 μM) and gradient concentration of ligand at RT. The reactions were stopped by addition of lysis buffer containing 5 μL Eu-cAMP tracer and 5 μL ULight-anti-cAMP. Plates were then incubated for 60 min at RT and time-resolved FRET signals were measured at 620 nm and 665 nm by an EnVision multilabel plate reader (PerkinElmer). Data were analyzed in GraphPad PRISM 8 and all values were normalized to the WT for each ligand. All outcomes were repeated at least three times.
(§2) aMutants represent that mutations were introduced separately into the WT receptors and
(§3) transiently expressed in HEK 293F cells.
(§4) bThe EC50 ratio was shown as EC50(mutant)/EC50(WT), indicating the shift between the WT
(§5) and mutant curves, reflecting the effect of the mutations on receptor signaling.
(§6) cData are shown as mean ± S.E.M. from at least three independent experiments
(§7) performed in technical triplicate. One-way ANOVA was performed followed by
(§8) Dunnett’s post-test and compared with WT. The P value was defined as: *P<0.05;
(§9) d The span is defined as the window between the maximal agonists response (Emax) and
(§10) e Sample size; the number of independent experiments performed in technical triplicate.
(§11) f Receptor expression level of HEK 293F cells was determined independently by flow
(§12) cytometry with anti-FLAG antibody and shown as per cent compared to the WT.

[2] = molecular target: T2, SSTR2 (Homo sapiens, UniProt P30874, Q102A); experiment: as above; type: cell-based; set-up: expressed in transfected cells; host or cells: HEK293F; settings: SSTR2 mutant Q102^2.63A; mean ± SEM
Procedure: as §1, §2, §3, §4, §5, §6, §7, §8, §9, §10, §11, §12

[3] = molecular target: SSTR2 (Homo sapiens, UniProt P30874, T212A); experiment: as above; type: cell-based; set-up: expressed in transfected cells; host or cells: HEK293F; settings: SSTR2 mutant T212^5.42A; mean ± SEM
Procedure: as §1, §2, §3, §4, §5, §6, §7, §8, §9, §10, §11, §12

[4] = molecular target: T3, SSTR2 (Homo sapiens, UniProt P30874, Y205A); experiment: as above; type: cell-based; set-up: expressed in transfected cells; host or cells: HEK293F; settings: SSTR2 mutant Y205^5.35A
Procedure: as §1, §2, §3, §4, §5, §6, §7, §8, §9, §10, §11, §12

[5] = molecular target: SSTR2 (Homo sapiens, UniProt P30874, F275A); experiment: as above; type: cell-based; set-up: expressed in transfected cells; host or cells: HEK293F; settings: SSTR2 mutant F275^6.54A; mean ± SEM
Procedure: as §1, §2, §3, §4, §5, §6, §7, §8, §9, §10, §11, §12

[6] = molecular target: T4, SSTR2 (Homo sapiens, UniProt P30874, F294A); experiment: as above; type: cell-based; set-up: expressed in transfected cells; host or cells: HEK293F; settings: SSTR2 mutant F294^7.35A; mean ± SEM
Procedure: as §1, §2, §3, §4, §5, §6, §7, §8, §9, §10, §11, §12

[7] = molecular target: T5, SSTR2 (Homo sapiens, UniProt P30874, Y302A); experiment: as above; type: cell-based; set-up: expressed in transfected cells; host or cells: HEK293F; settings: SSTR2 mutant Y302^7.43A; mean ± SEM
Procedure: as §1, §2, §3, §4, §5, §6, §7, §8, §9, §10, §11, §12

[8] = molecular target: T6, SSTR2 (Homo sapiens, UniProt P30874, T194A); experiment: as above; type: cell-based; set-up: expressed in transfected cells; host or cells: HEK293F; settings: SSTR2 mutant T194^ECL2A; mean ± SEM
Procedure: as §1, §2, §3, §4, §5, §6, §7, §8, §9, §10, §11, §12

[9] = molecular target: T7, SSTR2 (Homo sapiens, UniProt P30874); experiment: as above; type: cell-based; set-up: expressed in transfected cells; host or cells: HEK293F; settings: WT SSTR2
Procedure: as §1, §2, §3, §4, §5, §6, §7, §8, §9, §10, §11, §12

[10] = molecular target: T8, SSTR2 (Homo sapiens, UniProt P30874, D122A); experiment: as above; type: cell-based; set-up: expressed in transfected cells; host or cells: HEK293F; settings: SSTR2 mutant D122^3.32A; mean ± SEM
Procedure: as §1, §2, §3, §4, §5, §6, §7, §8, §9, §10, §11, §12

[11] = molecular target: SSTR2 (Homo sapiens, UniProt P30874, F272A); experiment: as above; type: cell-based; set-up: expressed in transfected cells; host or cells: HEK293F; settings: SSTR2 mutant F272^6.51A; mean ± SEM
Procedure: as §1, §2, §3, §4, §5, §6, §7, §8, §9, §10, §11, §12

[12] = molecular target: T1, SSTR2; experiment: Whole cell binding assay, SSTR2, competition with 125I-Tyr11-SST14, CHO-K1; settings: SSTR2 mutant Q126^3.36A; mean ± SEM;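 note: Cell-bound radioactivity in lysed CHO-K1 cells read by scintillation counting, each mutation introduced singly into the WT receptor, at least three independent experiments run in technical triplicate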
Procedure: (§13) For SSTR2 and SSTR4, CHO-K1 cells were cultured in F12 medium with 10% FBS and seeded at a density of 30,000 cells/well in Isoplate-96 plates (PerkinElmer). Twenty-four hours after transfection with the WT or mutant SSTR2/SSTR4, CHO-K1 cells were washed twice and incubated with blocking buffer (F12 supplemented with 25 mM HEPES and 0.1% (w/v) BSA, pH 7.4) for 2 h at 37 °C. […] Following incubation, cells were washed three times with ice-cold PBS and lysed by 50 μL lysis buffer (PBS supplemented with 20 mM Tris-HCl, 1% Triton X-100, pH 7.4). The radioactivity was subsequently counted (counts/min, CPM) in a scintillation counter (MicroBeta[2] Plate Counter, PerkinElmer) using a scintillation cocktail (OptiPhaseSuperMix, PerkinElmer). Data were analyzed by nonlinear regression using GraphPad PRISM 8.
(§14) aMutants represent that all mutations were introduced separately into the WT receptors
and expressed in CHO K1 cells.
(§15) bThe IC50 ratio was shown as IC50(mutant)/IC50(WT), indicating the shift between the WT
(§16) and mutant curves, reflecting the effect of the mutations on ligand binding.
(§17) cData are shown as mean ± S.E.M. form at least three independent experiments
as §7
(§18) Dunnett’s post-test and compared with WT.
as §9, §10

[13] = molecular target: T2, SSTR2; experiment: as above; settings: SSTR2 mutant Q102^2.63A; mean ± SEM
Procedure: as §13, §14
and expressed in CHO K1 cells.
as §15, §16, §17, §7, §18, §9, §10

[14] = molecular target: T3, SSTR2; experiment: as above; settings: SSTR2 mutant Y205^5.35A; mean ± SEM
Procedure: as §13, §14
and expressed in CHO K1 cells.
as §15, §16, §17, §7, §18, §9, §10

[15] = molecular target: T4, SSTR2; experiment: as above; settings: SSTR2 mutant F294^7.35A; mean ± SEM
Procedure: as §13, §14
and expressed in CHO K1 cells.
as §15, §16, §17, §7, §18, §9, §10

[16] = molecular target: T5, SSTR2; experiment: as above; settings: SSTR2 mutant Y302^7.43A; mean ± SEM
Procedure: as §13, §14
and expressed in CHO K1 cells.
as §15, §16, §17, §7, §18, §9, §10

[17] = molecular target: T6, SSTR2; experiment: as above; settings: SSTR2 mutant T194^ECL2A; mean ± SEM
Procedure: as §13, §14
and expressed in CHO K1 cells.
as §15, §16, §17, §7, §18, §9, §10

[18] = tested on: SSTR2; experiment: as above; settings: for IC50 ratio: IC50(mutant)/IC50(WT)
Procedure: as §13, §14
and expressed in CHO K1 cells.
as §15, §16, §17, §7, §18, §9, §10

[19] = molecular target: T7, SSTR2; experiment: as above; settings: WT SSTR2, mean ± SEM
Procedure: as §13, §14
and expressed in CHO K1 cells.
as §15, §16, §17, §7, §18, §9, §10

[20] = molecular target: T8, SSTR2; experiment: as above; settings: SSTR2 mutant D122^3.32A; mean ± SEM
Procedure: as §13, §14
and expressed in CHO K1 cells.
as §15, §16, §17, §7, §18, §9, §10

T2 sequence (P30874 whole entry Q102A): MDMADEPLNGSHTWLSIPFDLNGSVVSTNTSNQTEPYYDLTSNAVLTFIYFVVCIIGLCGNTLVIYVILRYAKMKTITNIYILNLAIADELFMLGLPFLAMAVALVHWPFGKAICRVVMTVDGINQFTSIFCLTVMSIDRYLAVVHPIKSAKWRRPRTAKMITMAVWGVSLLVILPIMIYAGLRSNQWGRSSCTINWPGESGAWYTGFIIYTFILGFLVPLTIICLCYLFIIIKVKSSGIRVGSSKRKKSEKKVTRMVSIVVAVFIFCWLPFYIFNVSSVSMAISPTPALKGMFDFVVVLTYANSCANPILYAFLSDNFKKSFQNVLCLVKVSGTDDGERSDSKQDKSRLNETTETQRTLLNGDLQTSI
T8 sequence (P30874 whole entry D122A): as the sequence (P30874 whole entry Q102A) above, with A102Q, D122A counted along it
T7 sequence (P30874 whole entry): as the sequence (P30874 whole entry Q102A) above, with A102Q counted along it
T1 sequence (P30874 whole entry Q126A): as the sequence (P30874 whole entry Q102A) above, with A102Q, Q126A counted along it
T5 sequence (P30874 whole entry Y302A): as the sequence (P30874 whole entry Q102A) above, with A102Q, Y302A counted along it
T6 sequence (P30874 whole entry T194A): as the sequence (P30874 whole entry Q102A) above, with A102Q, T194A counted along it
T3 sequence (P30874 whole entry Y205A): as the sequence (P30874 whole entry Q102A) above, with A102Q, Y205A counted along it
T4 sequence (P30874 whole entry F294A): as the sequence (P30874 whole entry Q102A) above, with A102Q, F294A counted along it
Sequence of SSTR2 (Homo sapiens, UniProt P30874, F272A) (P30874 whole entry F272A): as the sequence (P30874 whole entry Q102A) above, with A102Q, F272A counted along it
Sequence of SSTR2 (Homo sapiens, UniProt P30874, F275A) (P30874 whole entry F275A): as the sequence (P30874 whole entry Q102A) above, with A102Q, F275A counted along it
Sequence of SSTR2 (Homo sapiens, UniProt P30874, T212A) (P30874 whole entry T212A): as the sequence (P30874 whole entry Q102A) above, with A102Q, T212A counted along it

`C[C@@H](c1c[nH]c2ccccc12)[C@@H](NC(=O)N1CCC(n2c(=O)[nH]c3ccccc32)CC1)C(=O)N[C@@H](CCCCN)C(=O)OC(C)(C)C` [L-054,522] was tested, and the Span [1] was 82±6 % of WT, the “pEC50 ± SEM” value [1] was 9.18±0.17 and the Span [2] was 79±6 % of WT. For the same molecule, the “pEC50 ± SEM” value [2] was 9.46±0.18, the Span [3] was 108±5 % of WT and the “pEC50 ± SEM” value [3] was 8.94±0.12. The EC50 [4] was 0.01 nM, the Span ([4]; mean ± SEM) was 143±18 % of WT and the Span [5] was 154±10 % of WT. For the same molecule, the “pEC50 ± SEM” value [5] was 8.93±0.15, the Span [6] was 95±8 % of WT and the “pEC50 ± SEM” value [6] was 8.36±0.20. The Span [7] was 96±8 % of WT, the “pEC50 ± SEM” value [7] was 8.67±0.19 and the Span [8] was 104±10 % of WT. For the same molecule, the “pEC50 ± SEM” value [8] was 9.26±0.23, the EC50 ratio ([9]; EC50(mutant)/EC50(WT)) was 1 and the “pEC50 ± SEM” value ([9]; HEK293F, mean ± SEM, at least three independent experiments) was 9.67±0.08. The Span ([9]; window between Emax and vehicle, mean ± SEM) was 100±4 % of WT, the Span [10] was 41±6 % of WT and the “pEC50 ± SEM” value [10] was 7.37±0.27. For the same molecule, the Span [11] was 215±18 % of WT, the “pEC50 ± SEM” value [11] was 7.85±0.19 and the Span [12] was 15±5 % of WT. For the same molecule, the Span [13] was 20±5 % of WT, the “pIC50 ± SEM” value [13] was 6.35±0.52 and the Span [14] was 70±5 % of WT. The “pIC50 ± SEM” value [14] was 8.89±0.15, the Span [15] was 19±2 % of WT and the Span [16] was 15±2 % of WT. The Span [17] was 22±6 % of WT, the “pIC50 ± SEM” value [17] was 7.45±0.59 and the IC50 ratio ([18]; Construct 2 SSTR2) was 3. The IC50 ratio ([18]; SSTR2 mutant F275^6.54A) was 9, the IC50 ratio ([18]; SSTR2 mutant Q102^2.63A) was 152 and the IC50 ratio ([18]; SSTR2 mutant T194^ECL2A) was 12. It also gave an IC50 ratio ([18]; SSTR2 mutant T212^5.42A) of 1, an IC50 ratio ([18]; SSTR2 mutant Y205^5.35A) of 0.4 and an IC50 ratio ([18]; WT SSTR2) of 1. The “effect of construct modifications on binding and signaling” value ([18]; crystallization construct vs WT SSTR2) was “little effect on L-054,522 binding and signaling”, the “pKi ± SEM” value ([19]; competition with 125I-SST-14) was 8.53 ± 0.13 and the Span [19] was 100±6 % of WT. The “pIC50 ± SEM” value ([19]; at least three independent experiments) was 8.53±0.13 and the Span [20] was 15±7 % of WT.
